# Experimental data reported in patent US8722023B2, “Depigmenting or brigthening cosmetic composition comprising at least one oxazolin as an active ingredient” (Laboratoires Expanscience, priority 2005, dated 2014).
# Legend:
# [1] = tested on: normal human melanocytes in co-culture (NHEM-NHEK; M/K); test: Production of melanin in M/K co-cultures, irradiated or not; assay type: cell-based; settings: for quantity of melanin compared to the control (control = 100) / variation of the quantity of melanin compared to the control (value in brackets): 240 hours
# Protocol: (§1) The effect of OX100 was studied on the production of melanin by normal human melanocytes in co-culture (NHEM-NHEK; M/K) irradiated or not. Melanocyte/keratinocyte co-cultures (NHEM-NHEK; M/K) are incubated for 240 hours, in the absence or presence of OX100. The quantity of melanin present in the cells after incubation is measured by spectrophotometry. 1) M/K co-cultures are inoculated in medium free of PMA (phorbol myristate acetate) and are brought to 60-80% confluence for the test. 2) Three identical culture series are prepared in order to measure: • cytotoxicity by a MTT (tetrazolium salt) test and by morphological observation of the cells, • quantity of melanin, • quantity of total proteins (in order to determine the ratio of melanin to total protein). 3) Treatment conditions are as follows: • OX100 at three concentrations: 2×10^−6, 10^−5, 2×10^−5 M. • Kojic acid (reference depigmenting molecule). • IBMX (3-isobutyl-1-methylxanthine, pro-pigmenting reference molecule). Each treatment condition is carried out in triplicate. The co-cultures are incubated for 240 hours in the presence or absence of the compounds above. Irradiation by ultraviolet rays (25 mJ/cm^2 of UVB+300 mJ/cm^2 of UVA) is carried out four times per day for consecutive four days. At the end of the treatment, the cellular monolayers are washed. After cell lysis, the melanin crystals are extracted and solubilized. The melanin is quantified by measurement of the OD (optical density) at 450 nm and by comparison with a range of melanin standards.
# [2] = tested on: Melanocyte/keratinocyte co-cultures (NHEM-NHEK; M/K); test: Viability (MTT test) of M/K co-cultures; assay type: cell-based, human; settings: for Viability percentage (MTT test): 240 hours
# Protocol: as §1, with “Melanocyte/keratinocyte” for “The effect of OX100 was studied on the production of melanin by normal human melanocytes in co-culture (NHEM-NHEK; M/K) irradiated or not. Melanocyte/keratinocyte”, “days.” for “days. At the end of the treatment, the cellular monolayers are washed. After cell lysis, the melanin crystals are extracted and solubilized. The melanin is quantified by measurement of the OD (optical density) at 450 nm and by comparison with a range of melanin standards.”
# [3] = Overall assessment of the product's acceptability and effectiveness by the volunteers; assay type: in vivo, human (adult female volunteers); set-up: unit not given here; settings: panel of 21 volunteers
# Excerpt: Overall Assessment of the Product's Acceptability and Effectiveness by the Volunteers
# [4] = Assessment of cutaneous acceptability by the volunteers; assay type: in vivo, human (adult female volunteers); set-up: volunteers reporting no cutaneous manifestations: unit not given here
# Excerpt: Assessment of Cutaneous Acceptability by the Volunteers
# [5] = tested on: lentigo pigmentation spots, skin of hands and face; test: Clinical evaluation of hands and face after six weeks of application; assay type: in vivo, human (adult female volunteers)
# Excerpt: Among these volunteers, 14% were North-African in origin and 86% Mediterranean, including 76% of phototype IV and 10% of phototype V. All of these volunteers had lentigo pigmentation spots on the hands and most had them on the face. The results of the statistically significant variation, after six weeks of application, of some of the criteria evaluated are given in table 6 below: The percentages correspond to variations with respect to the initial evaluations, the p value corresponds to probability p with respect to the initial evaluations (Wilcoxon test, bilateral significance test, p<0.05). For measurements of pigmentation spot intensity, the intensity of the spot is identified beforehand. The results of the statistically significant variation, after six weeks of application, of some of the criteria evaluated are given in table 7 below: The percentages correspond to variations with respect to the initial evaluations, the p value corresponds to probability p with respect to the initial evaluations (Wilcoxon test, bilateral significance test, p<0.05). For measurements of pigmentation spot intensity, the intensity of the spot is identified beforehand.
# [6] = tested on: skin of the hands (spot-free area and pre-identified pigmentation spot); test: Colorimetric measurements (Chromameter) on the hands, treated hand vs. control hand; assay type: in vivo, human (adult female volunteers); settings: for Individual typological angle (ITA), treated hand / Lightness variable L*, treated hand: mean ± SEM
# Excerpt: Among these volunteers, 14% were North-African in origin and 86% Mediterranean, including 76% of phototype IV and 10% of phototype V. All of these volunteers had lentigo pigmentation spots on the hands and most had them on the face. COLORIMETRIC MEASUREMENTS (Chromameter™): Variance homogeneity and distribution normality were verified in all cases. Measurements are taken on the hands, in an area without pigmentation spots. The results correspond to the means and deviations with respect to the mean-SEM. The time and product effects results with values less than 0.05 are statistically significant. The result corresponding to both the time and product effects gives the value of the probability of the differences Δ (T=6 weeks minus T0) by the Student's t-test in a paired series (bilateral significance test, p<0.05). Measurements are carried out on the hands in an area with pigmentation spots. The results correspond to the means and deviations with respect to the mean-SEM.
# [7] = area with spots (pre-identified pigmentation spot), T = 0 (before treatment)
# [8] = area with spots (pre-identified pigmentation spot), T = 6 weeks
# [9] = spot-free area of the hands, T = 0 (before treatment)
# [10] = spot-free area of the hands, T = 6 weeks
structure (smiles),measurement,setting,value
"CC(C)Cn1c(=O)n(C)c(=O)c2[nH]cnc21 [IBMX, 3-isobutyl-1-methylxanthine, reference compound]",quantity of melanin compared to the control (control = 100),"[1]; 200 μM, With UV",114%
same,quantity of melanin compared to the control (control = 100),"[1]; 200 μM, Without UV",118%
same,variation of the quantity of melanin compared to the control (value in brackets),[1]; With UV,+14%
same,variation of the quantity of melanin compared to the control (value in brackets),[1]; Without UV,+15%
same,Viability percentage (MTT test),"[2]; 200 μM, With UV",111%
same,Viability percentage (MTT test),"[2]; 200 μM, Without UV",118%
"O=c1cc(CO)occ1O [Kojic acid, reference compound]",quantity of melanin compared to the control (control = 100),"[1]; 15.6 μg/ml, With UV",83%
same,variation of the quantity of melanin compared to the control (value in brackets),"[1]; 15.6 μg/ml, With UV",−20%
same,quantity of melanin compared to the control (control = 100),"[1]; 15.6 μg/ml, Without UV",74%
same,variation of the quantity of melanin compared to the control (value in brackets),"[1]; 15.6 μg/ml, Without UV",−35%
same,Viability percentage (MTT test),"[2]; 0.0156 mg/ml, With UV",99%
same,Viability percentage (MTT test),"[2]; 0.0156 mg/ml, Without UV",102%
"CCCCCCCCCCCC1=NC(C)(C)CO1 [OX100, 2-undecyl-4,4-dimethyl-1,3-oxazoline]",volunteers reporting somewhat good to good effectiveness as a depigmenting/lightening product,[3],Thirty-eight
same,"dermatological tolerance, conclusion in words",[4]; conclusion of Example 6,dermatologically well-tolerated
same,volunteers reporting no cutaneous manifestations,[4]; panel of 21 volunteers,Ninety-five
same,volunteers reporting no ocular manifestations,[4]; panel of 21 volunteers,100%
same,"COLOR LIGHTNESS, variation with respect to initial evaluation","[5]; face, p = 0.0001 (Wilcoxon)",+22% (p = 0.0001)
same,"INTENSITY OF THE PIGMENTATION SPOT, variation with respect to initial evaluation","[5]; face, p = 0.0196 (Wilcoxon)",−8% (p = 0.0196)
same,"COLOR UNIFORMITY, variation with respect to initial evaluation","[5]; face, p = 0.0455 (Wilcoxon)",+4% (p = 0.0455)
same,"SKIN LIGHTNESS, variation with respect to initial evaluation","[5]; hands, p = 0.0002 (Wilcoxon)",+16% (p = 0.0002)
same,"INTENSITY OF THE PIGMENTATION SPOT, variation with respect to initial evaluation","[5]; hands, p = 0.0143 (Wilcoxon)",−5% (p = 0.0143)
same,"SKIN UNIFORMITY, variation with respect to initial evaluation","[5]; hands, p = 0.0209 (Wilcoxon)",+10% (p = 0.0209)
same,"Individual typological angle (ITA), treated hand",[6]; [7],5.0 ± 4.5
same,"Lightness variable L*, treated hand",[6]; [7],51.2 ± 1.1
same,"Individual typological angle (ITA), treated hand",[6]; [8],11.0 ± 5.2
same,"Lightness variable L*, treated hand",[6]; [8],52.4 ± 1.2
same,increase in chromaticity coordinate L*,"[6]; area with spots, six weeks of applications, compared to initial values and control hand, p=0.048",+2%
same,"Individual typological angle (ITA), treated hand",[6]; [9],38.5 ± 2.4
same,"Lightness variable L*, treated hand",[6]; [9],58.4 ± 0.7
same,"Individual typological angle (ITA), treated hand",[6]; [10],44.1 ± 2.4
same,"Lightness variable L*, treated hand",[6]; [10],59.2 ± 0.7
same,increase in ITA,"[6]; spot-free area, six weeks of applications, compared to initial values and control hand, p=0.008",+13%
same,increase in chromaticity coordinate L*,"[6]; spot-free area, six weeks of applications, compared to initial values and control hand, p=0.017",+2%
same,quantity of melanin compared to the control (control = 100),"[1]; 2 × 10^−5 M, With UV",104%
same,variation of the quantity of melanin compared to the control (value in brackets),"[1]; 2 × 10^−5 M, With UV",+4%
same,quantity of melanin compared to the control (control = 100),"[1]; 2 × 10^−5 M, Without UV",89%
same,variation of the quantity of melanin compared to the control (value in brackets),"[1]; 2 × 10^−5 M, Without UV",−12%
same,quantity of melanin compared to the control (control = 100),"[1]; 2 × 10^−6 M, With UV",100%
same,variation of the quantity of melanin compared to the control (value in brackets),"[1]; 2 × 10^−6 M, With UV",0%
same,quantity of melanin compared to the control (control = 100),"[1]; 2 × 10^−6 M, Without UV",102%
same,variation of the quantity of melanin compared to the control (value in brackets),"[1]; 2 × 10^−6 M, Without UV",−1%
same,quantity of melanin compared to the control (control = 100),"[1]; 10^−5 M, With UV",99%
same,variation of the quantity of melanin compared to the control (value in brackets),"[1]; 10^−5 M, With UV",−1%
same,quantity of melanin compared to the control (control = 100),"[1]; 10^−5 M, Without UV",104%
same,variation of the quantity of melanin compared to the control (value in brackets),"[1]; 10^−5 M, Without UV",+4%
same,"effect on melanin in the irradiated study model, in words",[1]; irradiated co-cultures (UVB + UVA),neutralizes the effect of ultraviolet rays
same,inhibition of the synthesis of melanin,"[1]; non-irradiated co-cultures, 2.10^−5 M, p<0.01",roughly 12%
same,Viability percentage (MTT test),"[2]; 2 × 10^−5 M, With UV",105%
same,Viability percentage (MTT test),"[2]; 2 × 10^−5 M, Without UV",115%
same,Viability percentage (MTT test),"[2]; 2 × 10^−6 M, With UV",97%
same,Viability percentage (MTT test),"[2]; 2 × 10^−6 M, Without UV",102%
same,Viability percentage (MTT test),"[2]; 10^−5 M, With UV",99%
same,Viability percentage (MTT test),"[2]; 10^−5 M, Without UV",108%
same,"toxicity for the M/K co-cultures, in words",[2]; at the concentrations tested,not toxic
